{"source": "patent US20050002943A1", "about": "“Amp-kinase agonists or adenosine pro-drugs as immuno-stimulating agents” (priority 2001, published 2005)", "key": {"BALB/c mice [1]": {"tested_on": "BALB/c mice", "assay": "Primary antibody response to Ars-KLH with AICAR or 6-MPR, serum ELISA (Example 10)", "format": "in vivo", "details": "3 mg i.p. with Ars-KLH 100 μg; for antigen-specific IgG antibodies: vs antigen without adjuvant, day 19", "experimental": "BALB/c micereceived an intraperitoneal injection of Ars-KLH (100 μg), Ars-KLH+AICAR (3 mg) or Ars-KLH+6-MPR (3 mg). 19 days after Immunization, mice were bled and serum levels of antigen specific antibodies were determined by ELISA according to standard procedure using isotype-specific rat Mab."}, "BALB/c mice [2]": {"tested_on": "BALB/c mice", "assay": "Primary and secondary antibody response to Ars-KLH with oligomycin, serum ELISA (Example 11)", "format": "in vivo", "details": "oligomycin 10 μg i.p. with Ars-KLH 50 μg, vs antigen alone; primary (day 21) and secondary (14 days after boost)", "experimental": "BALB/C mice were injected intraperitoneally with Ars-KLH (50 μg) mixed with saline, AICA-riboside (3 mg) or oligomycin (10 μg). 21 days after immunization, mice were bled and serum levels of Ars-specific antibodies (primary response) were determined by ELISA according to standard procedure using isotype-specific rat mAb. […] On day 22, all mice received a second injection of Ars-KLH (50 μg) intrapertioneally. Mice were bled 14 days after the antigen boost and serum levels of Ars-KLH-specific antibodies (secondary response) were determined by ELISA."}, "BALB/c mice [3]": {"tested_on": "BALB/c mice", "assay": "Ars-KLH antibody response over a range of AICA-riboside doses (Example 5)", "format": "in vivo", "details": "AICA-riboside 3 to 0.3 mg i.p. with Ars-KLH 100 μg; primary and secondary response", "experimental": "BALB/c mice received an intraperitoneal injection of Ars-KLH (100 μg) or Ars-KLH (100 μg)+AICA-riboside at concentrations ranging from 3 to 0.3 mg. 21 days after immunization, mice were bled and serum levels of antigen (Ars)-specific antibodies were determined by ELISA according to standard procedure using isotype-specific reagents (primary response). On day 22, all mice received a boost of Ars-KLH (50 μg) intraperitoneally. Mice were bled 14 days after the antigen boost and serum levels of Ars-specific antibodies were determined by ELISA as described previously (secondary response). The results are illustrated in FIG. 5."}, "BALB/c mice [4]": {"tested_on": "BALB/c mice", "assay": "Antigen (NP)-specific antibody response to NP-KLH, serum ELISA (Example 1)", "format": "in vivo", "experimental": "BALB/c mice were injected intraperitoneally with 200 μl of saline, aqueous solution (phosphate buffer solution), or with 200 μl of phosphate buffer solution containing AICA-riboside (10 mg), NP-KLH (100 μg) or NP-KLH (100 μg)+AICA-riboside (10 mg). Height days after immunization, mice were bled and serum levels of antigen (NP)-specific antibodies were determined by ELISA according to standard procedure using isotype-specific reagents."}, "BALB/c mice [5]": {"tested_on": "BALB/c mice", "assay": "Primary, secondary and day 120 Ars-specific antibody response to Ars-KLH, serum ELISA (Examples 2 and 3)", "format": "in vivo", "experimental": "Three groups of BALB/c mice received an intraperitoneal injection of Ars-KLH (100 μg), Ars-KLH (100 μg)+AICA-riboside (10 mg) or Ars-KLH (100 μg)+Alum (50 μl). 21 days after immunization, mice were bled and serum levels of antigen (Ars)-specific antibodies were determined by ELISA as previously described (primary response). On day 22, all mice received a second injection (boost) of Ars-KLH (100 μg) i.p. Mice were bled 8 days after the antigen boost and serum levels of Ars-specific antibodies were determined by ELISA (secondary response). The results are illustrated in FIG. 2.\nMice immunized according to the protocol described in example 2 were bled 120 days after the first encounter with the antigen (in the presence or absence of adjuvant) and serum levels of antigen specific antibodies were determined by ELISA as described previously (secondary response, day 120)."}, "mice": {"tested_on": "mice", "assay": "Serum antibody response in mice to protein antigens mixed with AICA-riboside (general studies)", "format": "in vivo", "text": "(§1) Although the precise mechanism(s) by which AICA-riboside augments antibody responses in vivo is presently unknown, some points are noteworthy in light of the present invention. […] A qualitative change of the humoral response is also observed, as immunoglobulins of the IgG isotype (generally detected only during the secondary response) are already detected during the primary response in animals treated with antigen/AICA-riboside formulations. […] The immuno-potentiating effect of AICA-riboside in combination with said antigen is as good when the compounds are administered mixed together (co-administered) as when administered separately or sequentially. […] The use of this agent therefore probably precludes local pain after injection."}, "BALB/c mice [6]": {"tested_on": "BALB/c mice", "assay": "Ars-KLH antibody response, timing of AICA-riboside injection relative to antigen (Example 6)", "format": "in vivo", "details": "AICA-riboside 10 mg i.p. at d-1, d0 or d+1, separate site from Ars-KLH 100 μg", "experimental": "BALB/c mice received an intraperitoneal injection of AICA-riboside (10 mg) one day before (d-1), the same day (d0) or the day after (d+1) the intraperitoneal injection (in a separate site) of Ars-KLH (100 μg). A fourth group (n.t.) received an intraperitoneal injection of phosphate buffer solution the day of the antigen administration. 20 days after immunization, mice were bled and serum levels of Ars-specific antibodies were determined by ELISA according to standard procedures using isotype-specific reagents (primary response). On day 21, all mice received a boost of Ars-KLH (50 μg) intraperitoneally. Mice were bled 14 days after the antigen boost and serum levels of Ars-specific antibodies were determined by ELISA as described previously (secondary response)."}, "humans": {"tested_on": "humans", "details": "all dose levels (10 to 100 mg/kg); cited from earlier work"}, "BALB/c mice [7]": {"tested_on": "BALB/c mice", "assay": "Local inflammatory response at injection site, GR-1 immunohistochemistry (Example 9)", "format": "in vivo", "details": "rear footpad injection; AICA-riboside 2.5 mg or alum 12.5 μg; 8 or 24 hours", "experimental": "BALB/c mice were injected with saline (50 μl PBS), AICA-boside (2.5 mg) or alum (12.5 μg) in the two rear footpads. 8 or 24 hours after treatment mice were sacrificed, and thin sections of the tissues surrounding the injection site (marked by a circle) were analyzed by immunohistochemistry. Inflammatory cells (mostly granulocytes and monocytes) were identified using an antibody directed to the murine GR-1 molecule."}, "BALB/c mice [8]": {"tested_on": "BALB/c mice", "assay": "NP-KLH antibody response in anti-CD4 treated mice (Example 7)", "format": "in vivo", "details": "anti-CD4 (GK1.5) treated mice; NP-KLH 100 μg + AICA-riboside 10 mg i.p.; day 10", "experimental": "BALB/c mice, were treated or not with anti-CD4 antibodies (two intraperitoneal injections of 200 μl of the depleting rat anti-mouse anti-CD4 antibody, clone GK1.5, on days 0 and 5). On day 2 mice were injected intraperitoneally with NP-KLH (100 μg) or NP-KLH (100 μg)+AICA-riboside (10 mg). 10 days after immunization, mice were bled and serum levels of NP-specific antibodies were determined by ELISA according to standard procedures using isotype specific reagents."}, "murine lymphocytes": {"tested_on": "murine lymphocytes", "assay": "In vitro response of murine lymphocytes, cytokine secretion", "format": "cell-based", "text": "as §1"}, "BALB/c mice [9]": {"tested_on": "BALB/c mice", "assay": "Size of draining lymph nodes after footpad injection (Example 8)", "format": "in vivo", "details": "rear footpad injection with NP-KLH 25 μg; AICA-riboside 2.5 mg or Alum 12.5 μg; 8 days", "experimental": "BALB/c mice were injected with NP-KLH (25 μg), NP-KLH (25 μg)+AICA-riboside (2.5 mg) or NP-KLH (25 μg)+Alum (12.5 μg) in the two rear footpads. 8 days after injection, mice were sacrificed and their posterior lymph nodes were collected and immediately analyzed for size."}, "BALB/c mice [10]": {"tested_on": "BALB/c mice", "assay": "Primary and secondary antibody response to human gamma globulins (HGG), serum ELISA (Example 4)", "format": "in vivo", "details": "HGG 15 μg + AICA-riboside 10 mg i.p., boost day 25", "experimental": "BALB/c mice received an intraperitoneal injection of HGG (15 μg) or HGG (15 μg)+AICA-riboside (10 mg). 16 days after immunization, mice were bled and serum levels of HGG-specific antibodies were determined by ELISA as described. On day 25, the two groups of mice received respectively a boost of HGG (15 μg) and of HGG (15 μg)+AICA-riboside (10 mg) intraperitoneally. Mice were bled 10 days after the boost and serum levels of HGG-specific antibodies were determined by ELISA as described previously (secondary response). The results are illustrated in FIG. 4."}}, "note": "“Also recorded” adds a separate entry of the source."}
{"compound": "OC[C@H]1O[C@@H](n2cnc3c(S)ncnc32)[C@H](O)[C@@H]1O", "note": "[6-MPR, 6-mercaptopurine riboside]", "values": [{"measurement": "antigen-specific IgG antibodies", "setting": "BALB/c mice [1]", "value": "increased levels of antigen-specific IgG antibodies"}]}
{"compound": "CC[C@H]1/C=C/C=C/C[C@@H](C)[C@H](O)[C@@](C)(O)C(=O)[C@@H](C)[C@H](O)[C@@H](C)C(=O)[C@@H](C)[C@H](O)[C@@H](C)/C=C/C(=O)O[C@@H]2[C@H](C)[C@H](CC1)O[C@]1(CC[C@H](C)[C@H](C[C@@H](C)O)O1)[C@H]2C", "note": "[oligomycin]", "values": [{"measurement": "antigen-specific IgG antibodies", "setting": "BALB/c mice [2]", "value": "increased levels of antigen-specific IgG antibodies; also recorded: increases antibody responses"}]}
{"compound": "NC(=O)c1ncn([C@@H]2O[C@H](CO)[C@@H](O)[C@H]2O)c1N", "note": "[AICA-riboside, 5-aminoimidazole-4-carboxamide riboside]", "values": [{"measurement": "adjuvant activity over dose range", "setting": "BALB/c mice [3]", "value": "can act as an adjuvant over a wide range of doses"}, {"measurement": "antigen-specific IgG antibodies", "setting": "BALB/c mice [1]", "value": "increased levels of antigen-specific IgG antibodies"}, {"measurement": "Ars specific antibodies concentrations", "setting": "BALB/c mice [1]; serum 19 days after immunization, Ars-KLH+saline control 0.04", "value": "1.607 ± 0.521", "unit": "µg/mL"}, {"measurement": "antigen (NP)-specific antibody response", "setting": "BALB/c mice [4]; AICA-riboside 10 mg co-administered i.p. with NP-KLH 100 μg, vs antigen alone, bled Height days after immunization", "value": "increased antigen-specific antibody response"}, {"measurement": "antigen (NP)-specific antibody response", "setting": "BALB/c mice [4]; AICA-riboside 10 mg i.p. alone, without antigen", "value": "does not lead to an increased, antigen-specific antibody response"}, {"measurement": "antigen-specific IgM response", "setting": "BALB/c mice [5]; 10 mg i.p. with Ars-KLH 100 μg, vs antigen without adjuvant", "value": "unaffected"}, {"measurement": "antigen-specific IgG antibodies", "setting": "BALB/c mice [5]; 10 mg i.p. with Ars-KLH 100 μg, vs antigen without adjuvant, primary (day 21) and secondary (8 days after boost) response", "value": "increased levels of antigen-specific IgG antibodies"}, {"measurement": "immuno-stimulatory properties compared with Alum", "setting": "BALB/c mice [5]; AICA-riboside 10 mg vs Alum 50 μl, each with Ars-KLH 100 μg i.p.", "value": "comparable to the Alum adjuvant"}, {"measurement": "antigen-specific response, day 120", "setting": "BALB/c mice [5]; bled 120 days after first encounter with antigen, vs antigen alone", "value": "long-lasting increase in antigen-specific response"}, {"measurement": "local inflammatory response following injection", "setting": "mice; injection into mice", "value": "no local inflammatory response was observed"}, {"measurement": "boost of serum antibody response above unadjuvanted antigens", "setting": "mice; mixed in aqueous solutions with protein antigens, mice", "value": "five to ten folds"}, {"measurement": "adjuvant effect depending on time of injection", "setting": "BALB/c mice [6]", "value": "only manifest when AICA-riboside is injected at the same moment with the antigen"}, {"measurement": "tolerability in humans", "setting": "humans", "value": "well tolerated"}, {"measurement": "GR-1-expressing inflammatory cell recruitment / cellular infiltrates", "setting": "BALB/c mice [7]", "value": "minimal GR-1-expressing cells recruitment to sites distant from the injection site"}, {"measurement": "tissue necrosis at injection site", "setting": "BALB/c mice [7]", "value": "no tissue necrosis or abnormality"}, {"measurement": "antigen-specific antibody responses in the absence of CD4-expressing T cells", "setting": "BALB/c mice [8]", "value": "does not augment the antigen-specific antibody responses"}, {"measurement": "secretion of cytokines", "setting": "murine lymphocytes; in response to bacterial mitogens, lectins or protein antigens", "value": "did not affect the secretion of cytokines"}, {"measurement": "enhancing effect on in vitro response of murine lymphocytes", "setting": "murine lymphocytes; in vitro", "value": "no enhancing effect"}, {"measurement": "swelling of the lymph node draining the injection site", "setting": "BALB/c mice [9]", "value": "does not induce the swelling"}, {"measurement": "antibody response to protein antigen HGG", "setting": "BALB/c mice [10]", "value": "augments the antibody response"}]}
